# Measurements taken from PubChem BioAssay (NCI).
#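 The compound was tested at five concentrations on cells cultured in 96-well plates, with a 48-hour exposure period. Abbreviation: GI50, concentration required for 50% inhibition of growth. TGI denotes the concentration required for complete inhibition of growth.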
# How the values were obtained:
# Assay in all cases: inhibition of tumour cell growth, NCI panel, 48 h
# [1] = system: KM12 colon
# [2] = system: MALME-3M melanoma
# [3] = system: CAKI-1 renal
# [4] = system: HOP-62 NSCLC
# [5] = system: A549 NSCLC
# [6] = system: NCI-H460 lung
# [7] = system: UO-31 renal
# [8] = system: HT29 colon
# [9] = system: MOLT-4 leukemia
# [10] = system: T-47D breast
# [11] = system: RXF 393 renal
# [12] = system: SF-295 CNS
# [13] = system: MDA-MB-231 breast
# [14] = system: K-562 leukemia
# [15] = system: COLO 205 colon
# [16] = system: PC-3 prostate
# [17] = system: HCT-116 colon
# [18] = system: EKVX NSCLC
# [19] = system: UACC-62 melanoma
# [20] = system: SK-MEL-28 melanoma
# [21] = system: ACHN renal
# [22] = system: SK-MEL-2 melanoma
# [23] = system: NCI/ADR-RES ovarian
# [24] = system: NCI-H23 lung
# [25] = system: HCC-2998 colon
# [26] = system: SF-539 CNS
# [27] = system: OVCAR-3 ovarian
# [28] = system: MCF7 breast
# [29] = system: SN12C renal
# [30] = system: UACC-257 melanoma
# [31] = system: HCT-15 colon
# [32] = system: U251 CNS
# [33] = system: 786-0 renal
# [34] = system: SNB-19 CNS
# [35] = system: NCI-H522 lung
# [36] = system: SF-268 CNS
# [37] = system: RPMI-8226 leukemia
# [38] = system: OVCAR-5 ovarian
# [39] = system: CCRF-CEM leukemia
# [40] = system: BT-549 breast
# [41] = system: NCI-H226 lung
# [42] = system: HL-60(TB) leukemia
# [43] = system: A498 renal
# [44] = system: HOP-92 NSCLC
# [45] = system: LOX IMVI melanoma
# [46] = system: SK-MEL-5 melanoma
# [47] = system: MDA-N
# [48] = system: SNB-75 CNS
# [49] = system: SR leukemia
# [50] = system: MDA-MB-435
# [51] = system: IGROV1 ovarian
# [52] = system: SW-620 colon
# [53] = system: SK-OV-3 ovarian
# [54] = system: HS 578T breast
# [55] = system: TK-10 renal
# [56] = system: OVCAR-8 ovarian
# [57] = system: OVCAR-4 ovarian
# [58] = system: M14 melanoma
# [59] = system: DU-145 prostate
smiles,measurement,setting,value
CN(CCN(C)CCN(C)C(=O)Cc1ccc(Cl)c(Cl)c1)CCN1CCCC1,TGI,[1],> 100 µM
same,TGI,[2],36.6 µM
same,TGI,[3],> 100 µM
same,TGI,[4],86.1 µM
same,TGI,[5],> 100 µM
same,TGI,[6],82.1 µM
same,TGI,[7],3.93 µM
same,TGI,[8],27.3 µM
same,TGI,[9],29.1 µM
same,TGI,[10],51.7 µM
same,TGI,[11],39 µM
same,TGI,[12],41.5 µM
same,TGI,[13],53.9 µM
same,TGI,[14],12.9 µM
same,TGI,[15],33.8 µM
same,TGI,[16],> 100 µM
same,TGI,[17],> 100 µM
same,TGI,[18],> 100 µM
same,TGI,[19],16.6 µM
same,TGI,[20],6.07 µM
same,TGI,[21],> 100 µM
same,TGI,[22],31.8 µM
same,TGI,[23],> 100 µM
same,TGI,[24],> 100 µM
same,TGI,[25],26 µM
same,TGI,[26],46.2 µM
same,TGI,[27],> 100 µM
same,TGI,[28],57.2 µM
same,TGI,[29],> 100 µM
same,TGI,[30],17.5 µM
same,TGI,[31],> 100 µM
same,TGI,[32],41.3 µM
same,TGI,[33],49.6 µM
same,TGI,[34],> 100 µM
same,TGI,[35],41.4 µM
same,TGI,[36],> 100 µM
same,TGI,[37],22.8 µM
same,TGI,[38],> 100 µM
same,TGI,[39],30.9 µM
same,TGI,[40],77.1 µM
same,TGI,[41],61.3 µM
same,TGI,[42],61.3 µM
same,TGI,[43],32 µM
same,TGI,[44],24.1 µM
same,TGI,[45],36.3 µM
same,TGI,[46],35.3 µM
same,TGI,[47],25.1 µM
same,TGI,[48],73.3 µM
same,TGI,[49],34.1 µM
same,TGI,[50],21.6 µM
same,TGI,[51],> 100 µM
same,TGI,[52],> 100 µM
same,TGI,[53],> 100 µM
same,TGI,[54],> 100 µM
same,TGI,[55],58.1 µM
same,TGI,[56],> 100 µM
same,TGI,[57],> 100 µM
same,TGI,[58],> 100 µM
same,TGI,[59],> 100 µM
CCCCCOC(=O)C(=O)Nc1n[nH]nc1C(N)=O,TGI,[1],> 100 µM
same,TGI,[2],> 100 µM
same,TGI,[3],> 100 µM
same,TGI,[4],> 100 µM
same,TGI,[5],> 100 µM
same,TGI,[6],> 100 µM
same,TGI,[7],> 100 µM
same,TGI,[8],> 100 µM
same,TGI,[9],> 100 µM
same,TGI,[10],> 100 µM
same,TGI,[11],> 100 µM
same,TGI,[12],> 100 µM
same,TGI,[13],> 100 µM
same,TGI,[14],> 100 µM
same,TGI,[15],> 100 µM
same,TGI,[16],> 100 µM
same,TGI,[17],> 100 µM
same,TGI,[18],> 100 µM
same,TGI,[19],> 100 µM
same,TGI,[20],> 100 µM
same,TGI,[21],> 100 µM
same,TGI,[22],> 100 µM
same,TGI,[23],> 100 µM
same,TGI,[24],> 100 µM
same,TGI,[25],> 100 µM
same,TGI,[26],> 100 µM
same,TGI,[27],> 100 µM
same,TGI,[28],> 100 µM
same,TGI,[29],> 100 µM
same,TGI,[30],> 100 µM
same,TGI,[31],> 100 µM
same,TGI,[32],> 100 µM
same,TGI,[33],> 100 µM
same,TGI,[34],> 100 µM
same,TGI,[35],> 100 µM
same,TGI,[36],> 100 µM
same,TGI,[37],> 100 µM
same,TGI,[38],> 100 µM
same,TGI,[39],> 100 µM
same,TGI,[40],> 100 µM
same,TGI,[41],> 100 µM
same,TGI,[42],> 100 µM
same,TGI,[43],> 100 µM
same,TGI,[44],> 100 µM
same,TGI,[45],> 100 µM
same,TGI,[46],> 100 µM
same,TGI,[47],> 100 µM
same,TGI,[48],> 100 µM
same,TGI,[49],> 100 µM
same,TGI,[50],> 100 µM
same,TGI,[51],> 100 µM
same,TGI,[52],> 100 µM
same,TGI,[53],> 100 µM
same,TGI,[54],> 100 µM
same,TGI,[55],> 100 µM
same,TGI,[56],> 100 µM
same,TGI,[57],> 100 µM
same,TGI,[58],> 100 µM
same,TGI,[59],> 100 µM
O=NNc1ccc(S(=O)c2ccccc2)cn1 (stereo not drawn),TGI,[1],> 100 µM
same,TGI,[2],> 100 µM
same,TGI,[3],> 100 µM
same,TGI,[4],> 100 µM
same,TGI,[5],> 100 µM
same,TGI,[6],> 100 µM
same,TGI,[7],> 100 µM
same,TGI,[8],> 100 µM
same,TGI,[9],> 100 µM
same,TGI,[10],> 100 µM
same,TGI,[11],> 93.7 µM
same,TGI,[12],> 100 µM
same,TGI,[13],> 100 µM
same,TGI,[14],> 100 µM
same,TGI,[15],> 100 µM
same,TGI,[16],> 100 µM
same,TGI,[17],> 100 µM
same,TGI,[18],> 100 µM
same,TGI,[19],> 100 µM
same,TGI,[20],> 100 µM
same,TGI,[21],> 100 µM
same,GI50,[22],> 100 µM
same,TGI,[22],> 100 µM
same,TGI,[23],> 100 µM
same,TGI,[24],> 100 µM
same,GI50,[25],> 100 µM
same,TGI,[25],> 100 µM
same,TGI,[26],> 100 µM
same,TGI,[27],> 100 µM
same,TGI,[28],> 100 µM
same,TGI,[29],> 100 µM
same,TGI,[30],> 100 µM
same,TGI,[31],> 100 µM
same,TGI,[32],> 100 µM
same,TGI,[33],> 100 µM
same,TGI,[34],> 100 µM
same,TGI,[35],> 100 µM
same,TGI,[36],> 100 µM
same,GI50,[37],> 100 µM
same,TGI,[37],> 100 µM
same,TGI,[38],> 100 µM
same,TGI,[39],> 100 µM
same,TGI,[40],> 100 µM
same,TGI,[41],> 100 µM
same,TGI,[42],> 100 µM
same,TGI,[43],> 100 µM
same,GI50,[44],12.2 µM
same,TGI,[44],> 100 µM
same,GI50,[45],> 100 µM
same,TGI,[45],> 100 µM
same,TGI,[46],> 100 µM
same,TGI,[47],> 100 µM
same,TGI,[48],> 100 µM
same,TGI,[49],> 100 µM
same,GI50,[50],> 100 µM
same,TGI,[50],> 100 µM
same,TGI,[51],> 100 µM
same,TGI,[52],> 100 µM
same,TGI,[53],> 100 µM
same,TGI,[54],> 100 µM
same,TGI,[55],> 100 µM
same,TGI,[56],> 100 µM
same,TGI,[57],> 100 µM
same,TGI,[58],> 100 µM
same,TGI,[59],> 100 µM
